Like-named read-outs stand apart in the source and are kept apart here.

Test [1] addresses T1, hα3β4 AChR (Homo sapiens, UniProt P30926+P32297). The test is described as follows: Equilibrium binding of [3H]ibogaine to hα3β4 AChR membranes.
The target of test [2] is T1, hα3β4 AChR. As to the kind of experiment: cell-based. The test is classed as cell-based.
Test [3] addresses T1, hα3β4 AChR. The test is classed as binding. Conditions: for nH: radioligand [3H]ibogaine.
Test [4] has as its target T1, hα3β4 AChR. The test is classed as binding. Conditions: for nH: radioligand [3H]TCP.
The target in test [5] is T1, hα3β4 AChR. The test is described as follows: Binding kinetics by non-linear chromatography on the CMAC-hα3β4 AChR column.
Test [6] addresses T1, hα3β4 AChR. The test is classed as binding. Conditions: for ΔG^20: 293 K; for Ea (energy of activation of the dissociation process): Arrhenius plot; for ΔH°: van't Hoff plot.
The subject of a further test is rat α3β4 AChRs. As to conditions: 86Rb+ efflux, rat α3β4 AChRs ref Hernandez et al., 2000; cited from earlier work.
[7] abbreviates: Desensitized state (1 µM (−)-nicotine).
The mark [8] stands for this setting: AChR in the resting state (κ-BTx), 20 °C.
[9] abbreviates: Epibatidine treated column (desensitized state).
The mark [10] stands for this setting: κ-BTx treated column (resting state).

T1 sequence (P32297 32-505): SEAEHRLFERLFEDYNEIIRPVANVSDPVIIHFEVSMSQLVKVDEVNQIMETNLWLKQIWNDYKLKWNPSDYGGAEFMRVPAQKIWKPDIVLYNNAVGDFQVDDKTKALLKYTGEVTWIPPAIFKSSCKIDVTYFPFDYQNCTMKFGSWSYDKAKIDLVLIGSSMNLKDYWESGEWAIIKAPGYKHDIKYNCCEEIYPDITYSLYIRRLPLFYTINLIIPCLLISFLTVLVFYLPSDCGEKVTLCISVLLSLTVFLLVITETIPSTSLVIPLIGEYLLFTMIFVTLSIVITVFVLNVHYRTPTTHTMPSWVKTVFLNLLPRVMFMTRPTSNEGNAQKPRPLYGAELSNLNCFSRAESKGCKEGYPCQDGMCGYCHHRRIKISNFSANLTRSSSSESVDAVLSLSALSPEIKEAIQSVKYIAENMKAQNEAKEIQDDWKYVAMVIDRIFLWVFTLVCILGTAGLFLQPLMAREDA
T1 sequence (P30926 22-498): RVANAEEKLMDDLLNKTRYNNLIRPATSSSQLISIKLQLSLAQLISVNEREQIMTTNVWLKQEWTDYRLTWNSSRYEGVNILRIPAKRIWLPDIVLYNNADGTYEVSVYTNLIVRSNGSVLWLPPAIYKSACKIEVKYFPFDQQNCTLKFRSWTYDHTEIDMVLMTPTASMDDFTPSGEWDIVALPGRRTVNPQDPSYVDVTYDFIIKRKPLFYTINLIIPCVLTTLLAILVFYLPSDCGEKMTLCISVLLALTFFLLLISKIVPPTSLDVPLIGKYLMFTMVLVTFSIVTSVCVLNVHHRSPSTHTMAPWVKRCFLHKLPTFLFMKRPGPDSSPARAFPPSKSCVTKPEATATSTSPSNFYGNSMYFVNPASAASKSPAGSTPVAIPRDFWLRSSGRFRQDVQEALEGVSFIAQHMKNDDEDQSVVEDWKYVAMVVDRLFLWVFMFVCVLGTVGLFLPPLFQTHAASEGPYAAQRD

In general, Kd refers to the equilibrium constant for the complex coming apart. As to [^3H]ibogaine, the “specific activity (number of binding sites, Bmax)” value on hα3β4 AChR [1] (HEK293-hα3β4 membranes, x-intersect of Scatchard plot) is recorded as 3.9 ± 0.4 pmol/mg protein. In addition, binding at hα3β4 AChR [1] (resting (no ligand) state, Rosenthal-Scatchard plot) was put at a Kd of 0.46 ± 0.06 µM.

By koff is commonly meant a measure of how fast the partners let go of each other. One may read the kon as the rate constant with which the complex forms. Low readings indicate slow association, high ones fast association. For the compound “7-ethyl-6,2,7,8,9,10,12,13-octahydro-2-methoxy-6,9-methano 5H-pyrido(1′,2′:1,2-azepine (4,5-)indole) [Ibogaine]”, at hα3β4 AChR [2], the “nH (Hill coefficient)” value came out at 1.24 ± 0.07. Also, the “fold higher potency than PCP in inhibiting (±)-epibatidine-induced Ca2+ influx” value on hα3β4 AChR [2] (ibogaine IC50 versus PCP IC50) is ~ 9 fold. Further, at hα3β4 AChR [3] (setting [7]), the nH amounted to 1.01 ±0.11. The nH on hα3β4 AChR [3] (Resting state) is listed as 0.82 ± 0.08. In addition, the “fold higher affinity for desensitized/nicotine-bound than resting/no ligand AChR” value at hα3β4 AChR [3] ([3H]ibogaine competition, p < 0.05) was ~ 2.8 fold. At hα3β4 AChR [4] (setting [7]), the nH is on record as 0.95 ±0.13. The compound also yielded a nH on hα3β4 AChR [4] (Resting state) of 0.79 ± 0.13. For the same compound, the “fold higher affinity for desensitized than resting AChR” value at hα3β4 AChR [4] ([3H]TCP competition) was ~ 2.6 fold. At hα3β4 AChR [5], the koff worked out at 0.078 ± 0.002 s⁻¹, the on-rate (kon) turned out to be 300000 ± 10000 M⁻¹ s⁻¹ and the ΔG was -8.82 ± 0.024 kcal/mol. At hα3β4 AChR [5] (setting [8]), the “Ka (association constant)” value is 3.47 ± 0.12 µM⁻¹ and the dissociation rate constant (koff) was 0.088 ± 0.001 s⁻¹. This compound registered a kon at hα3β4 AChR [5] (AChR in the resting state (κ-BTx), kon = koff·Ka) of 310000 ± 20000 M⁻¹ s⁻¹. For the same compound, on hα3β4 AChR [5] (both conformational states), the “association rate constants kon (order of magnitude)” value is on record as ~ 10^5 M^−1 s^−1. In addition, at hα3β4 AChR [6] (setting [9]), the “ΔH^+ (enthalpy change of the transition state)” value was 12.7 ± 1.8 kJmol^−1, the “−TΔS°” value was −29.4 ± 0.3 kJmol-^1, the “ΔG^20” value is −37.0 ± 0.1 kJmol^−1 and the “Ea (energy of activation of the dissociation process)” value was 15.1 ± 1.8 kJmol^−1. In addition, the “ΔH°” value on hα3β4 AChR [6] (setting [9]) was -1.82 ± 0.072 kcal/mol. At hα3β4 AChR [6] (setting [10]), the “ΔH^+ (enthalpy change of the transition state)” value turned out to be 11.2 ± 0.7 kJmol^−1, the “−TΔS°” value is on record as −26.2 ± 0.7 kJmol-^1, the “ΔG^20” value is −36.7 ± 0.1 kJmol^−1 and the “Ea (energy of activation of the dissociation process)” value came to 13.7 ± 0.7 kJmol^−1. Besides, on hα3β4 AChR [6] (setting [10]), the “ΔH°” value was -2.51 ± 0.17 kcal/mol.

Turning to `Clc1ccc(C2CC3CCC2N3)cn1` (racemic) [(±)-epibatidine, (±)-Epibatidine], the “nH (Hill coefficient)” value on hα3β4 AChR [2] (activation of the hα3β4 AChR, Ca2+ influx) is listed as 1.21 ± 0.06.

Usually IC50 stands for the concentration that gives 50% inhibition. Usually Ki stands for the equilibrium dissociation constant of an inhibitor or competing ligand from its target. Consider `c1ccc(C2(N3CCCCC3)CCCCC2)cc1` [PCP, phencyclidine], for which the IC50 is 8.5 ± 1.4 µM on hα3β4 AChR [2] and 7 ± 1.3 µM in the test with rat α3β4 AChRs. Further, the “fold higher inhibitory potency in the hα3β4 AChR than in the muscle AChR” value at hα3β4 AChR [2] (compared with muscle AChR value of ref Fryer and Lukas, 1999) is on record as ~ 2 fold. For the same compound, the “nH (Hill coefficient)” value at hα3β4 AChR [2] (inhibition of (±)-epibatidine-induced Ca2+ influx, HEK293-hα3β4 cells) was 0.92 ± 0.02. Also, the Ki at hα3β4 AChR [3] came out at 17 ± 2 µM; on hα3β4 AChR [4], 10 ± 2 µM. The nH at hα3β4 AChR [3] (Resting state) is 0.88 ± 0.07; at hα3β4 AChR [4] (Resting state) it was 0.87 ± 0.10. In addition, the “times lower affinity compared to ibogaine” value at hα3β4 AChR [3] (resting hα3β4 AChR, Table 2 values) is listed as 10–16 times.

The values above are taken from paper PMC4609575 (The international journal of biochemistry & cell biology, 2010).
